Source: patent US9950038B2, “Methods and compositions for inhibiting delayed graft function” (THE TRUSTEES OF THE UNIVERSIY OF PENNSYLVANIA, priority 2011, dated 2018)
Ends that are not written are not given here.

Key:
conscious dogs = experiment: Recovery after coronary artery occlusion and reperfusion in conscious dogs; type: in vivo; conditions: 1.5 pmol/kg/min at the time of reperfusion following coronary artery occlusion
Text: CBF and respective regional wall thickening responses to CAO and CAR. The CBF response (top) is characterized by reactive hyperemia followed by gradual return of flow to pre-occlusion levels in both control and GLP-1-treated animals. The different patterns of recovery of regional contractile function between the two groups are illustrated (bottom).
(§1) This mechanism involves improved ventricular relaxation which is known to be most sensitive to ATP depletion.

[1] = tested on: humans with acute myocardial infarction; experiment: Infusion at reperfusion in humans with acute myocardial infarction; type: in vivo
Text: Lower panel illustrates individual data. […] Lower panel illustrates individual data.
as §1

[2] = tested on: patients with Class 3-4 heart failure; experiment: Administration to patients with Class 3-4 heart failure; type: in vivo, humans; conditions: administered for 5 weeks
[3] = tested on: conscious dogs with pacing-induced DCM; experiment: Myocardial glucose uptake during hyperinsulinemic euglycemic clamp in conscious dogs with pacing-induced DCM; type: in vivo; conditions: basal and insulin-stimulated
Text: This provides glycolytic ATP without further increases in mitochondrial ROS production. […] This provides the rationale for the use of the native peptide in the treatment of post-ischemic allograft injury.

[4] = tested on: conscious pigs with biventricular failure; experiment: Chronic conscious pig model of biventricular failure with impaired renal blood flow; type: in vivo; conditions: short term (2 hours) infusion, 1.5 pmol/kg/min
Text: FIG. 4, comprising FIG. 4A and 4B show impaired renal blood flow but not cardiac output in pigs with biventricular failure.
There is a model of biventricular heart failure in conscious pigs that is associated with reductions in renal blood flow and function. FIG. 3 illustrates the model and the perturbation in renal blood flow. This is an important model of cardio-renal syndrome in which renal and cardiac injury are found together. FIG. 4 illustrates a 50% reduction in renal blood flow without a reduction in cardiac output in conscious pigs with biventricular failure.

HIF-1a = HIF-1a induction in normal hearts; type: in vivo; conditions: intravenous continuous administration
Text: The induction of this cyto-protective program is beneficial in the face of subsequent ischemic injury in allografts. p38 MAP kinase activation has been associated with the stabilization of praline residues which otherwise target the HIF-1a subunits to ubiquinization. The stabilization allows the subunits to form heterodimers which active a gene program of cytoprotection.

| Substance | recovery of left ventricular function (conscious dogs) | peri-infarct and global LV function ([1]; 1.5 pmol/kg/min at the time of reperfusion, humans with acute myocardial infarction, versus patients on comparable therapies without GLP-1) | natriuresis [2] | myocardial glucose uptake [3] | requirement for inotropic and pressure support ([1]; GLP-1 infusion, population not given) | GFR [4] | renal blood flow [4] | urinary sodium excretion [4] | HIF-1a mRNA (HIF-1a) | expression of HIF-1a inducible genes, heme-oxygenase-1 (HO-1) (HIF-1a) |
| --- | --- | --- | --- | --- | --- | --- | --- | --- | --- | --- |
| GLP-1 (7-36) amide (HAEGTFTSDVSSYLEGQAAKEFIAWLVKGR-NH2) | more rapid and complete recovery of left ventricular function | improved peri-infarct and global LV function | significant natriuresis that required reduction in diuretic doses | increase myocardial glucose uptake independent of an increase in circulating insulin |  |  |  |  |  |  |
| GLP-1 (9-36) amide (EGTFTSDVSSYLEGQAAKEFIAWLVKGR-NH2) |  |  |  | increase myocardial glucose uptake independent of an increase in circulating insulin |  |  |  |  |  |  |
| Glucagon-like peptide-1 [GLP-1] |  |  |  |  | reduces the requirement for inotropic and pressure support | improvement in GFR | returned renal blood flow to near normal levels | increased urinary sodium excretion | increases in HIF-1a mRNA | increased expression of HIF-1a inducible genes, heme-oxygenase-1 (HO-1) |
